Test results from the NIST ThermoML archive (doi:10.1021/je200616t).
± gives the expanded uncertainty stated by the source.

Assay: xn = mol fraction of the nth substance listed
Conditions: 101 kPa, Liquid, MP522 conductivity instrument

CCCCCC[n+]1ccccc1.O=S(=O)([N-]S(=O)(=O)C(F)(F)F)C(F)(F)F [1-hexylpyridinium bis(trifluromethylsulfonyl)imide] + CC1COC(=O)O1
electrical conductivity [S/m]
Conditions	283.15 K	293.15 K	298.15 K	303.15 K	313.15 K
x1 = 0.0128	0.184 ± 0.004	0.226 ± 0.005	0.249 ± 0.005	0.275 ± 0.006	0.324 ± 0.007
x1 = 0.0186	0.243 ± 0.005	0.303 ± 0.006	0.334 ± 0.007	0.367 ± 0.007	0.435 ± 0.009
x1 = 0.0321	0.354 ± 0.007	0.445 ± 0.009	0.489 ± 0.01	0.539 ± 0.011	0.641 ± 0.013
x1 = 0.0545	0.472 ± 0.01	0.597 ± 0.012	0.661 ± 0.013	0.731 ± 0.015	0.874 ± 0.018
x1 = 0.0693	0.519 ± 0.011	0.66 ± 0.013	0.733 ± 0.015	0.814 ± 0.016	0.976 ± 0.02
x1 = 0.1001	0.567 ± 0.011	0.729 ± 0.015	0.815 ± 0.016	0.911 ± 0.018	1.1 ± 0.022
x1 = 0.1332	0.574 ± 0.012	0.749 ± 0.015	0.841 ± 0.017	0.944 ± 0.019	1.16 ± 0.023
x1 = 0.1806	0.539 ± 0.011	0.72 ± 0.015	0.817 ± 0.016	0.925 ± 0.019	1.15 ± 0.023
x1 = 0.2489	0.463 ± 0.009	0.636 ± 0.013	0.73 ± 0.015	0.838 ± 0.017	1.06 ± 0.021
x1 = 0.334	0.366 ± 0.007	0.522 ± 0.011	0.609 ± 0.012	0.708 ± 0.014	0.918 ± 0.018
x1 = 0.4547	0.256 ± 0.005	0.384 ± 0.008	0.458 ± 0.009	0.542 ± 0.011	0.725 ± 0.015
x1 = 0.5693	0.19 ± 0.004	0.294 ± 0.006	0.358 ± 0.007	0.43 ± 0.009	0.589 ± 0.012
x1 = 0.7043	0.136 ± 0.003	0.218 ± 0.004	0.27 ± 0.006	0.332 ± 0.007	0.47 ± 0.01
x1 = 0.8506	0.0986 ± 0.0021	0.167 ± 0.003	0.208 ± 0.004	0.258 ± 0.005	0.377 ± 0.008
x1 = 0.9425	0.0826 ± 0.0018	0.141 ± 0.003	0.179 ± 0.004	0.223 ± 0.005	0.332 ± 0.007
x1 = 1	0.0737 ± 0.0016	0.129 ± 0.003	0.163 ± 0.003	0.205 ± 0.004	0.306 ± 0.006

CCCCCC[n+]1ccccc1.O=S(=O)([N-]S(=O)(=O)C(F)(F)F)C(F)(F)F [1-hexylpyridinium bis(trifluromethylsulfonyl)imide] + CC#N
electrical conductivity [S/m]
Conditions	283.15 K	293.15 K	298.15 K	303.15 K	313.15 K
x1 = 0.0432	2.75 ± 0.06	3.05 ± 0.06	3.2 ± 0.06	3.35 ± 0.07	3.65 ± 0.07
x1 = 0.0703	2.91 ± 0.06	3.28 ± 0.07	3.46 ± 0.07	3.65 ± 0.07	4.01 ± 0.08
x1 = 0.0883	2.83 ± 0.06	3.22 ± 0.06	3.42 ± 0.07	3.61 ± 0.07	4 ± 0.08
x1 = 0.1355	2.37 ± 0.05	2.77 ± 0.06	2.98 ± 0.06	3.19 ± 0.06	3.61 ± 0.07
x1 = 0.2056	1.64 ± 0.033	2 ± 0.04	2.19 ± 0.04	2.39 ± 0.05	2.81 ± 0.06
x1 = 0.2534	1.27 ± 0.026	1.59 ± 0.032	1.77 ± 0.036	2 ± 0.04	2.38 ± 0.05
x1 = 0.332	0.886 ± 0.018	1.16 ± 0.023	1.3 ± 0.026	1.46 ± 0.029	1.79 ± 0.036
x1 = 0.4498	0.503 ± 0.01	0.702 ± 0.014	0.811 ± 0.016	0.935 ± 0.019	1.2 ± 0.024
x1 = 0.5297	0.351 ± 0.007	0.51 ± 0.01	0.599 ± 0.012	0.702 ± 0.014	0.924 ± 0.019
x1 = 0.6276	0.239 ± 0.005	0.362 ± 0.007	0.437 ± 0.009	0.518 ± 0.011	0.704 ± 0.014
x1 = 0.8155	0.128 ± 0.003	0.207 ± 0.004	0.256 ± 0.005	0.316 ± 0.006	0.452 ± 0.009
x1 = 0.9205	0.0936 ± 0.002	0.157 ± 0.003	0.197 ± 0.004	0.245 ± 0.005	0.358 ± 0.007
x1 = 1	0.0737 ± 0.0016	0.128 ± 0.003	0.163 ± 0.003	0.205 ± 0.004	0.306 ± 0.006
